Where a SMILES comes first, the peptide text is derived from it. Side-chain parts run from the residue outwards. [ ]: non-standard residue; d: D form. The star is where a group is joined. Shikimoyl = O=C(C1=C[C@@H](O)[C@@H](O)[C@H](O)C1)*; Quinoline3carbonyl = O=C(c1cnc2ccccc2c1)*; Quinoline4carbonyl = O=C(c1ccnc2ccccc12)*; dPhe(4-Cl) = N[C@H](Cc1ccc(Cl)cc1)C(=O)O; d2Nal = N[C@H](Cc1ccc2ccccc2c1)C(=O)O; Lys(iPr) = CC(C)NCCCC[C@H](N)C(=O)O; NMeY = CN[C@@H](Cc1ccc(O)cc1)C(=O)O; Pyrazinecarbonyl = O=C(c1cnccn1)*; d3Pal = N[C@H](Cc1cccnc1)C(=O)O; Nicotinoyl = O=C(c1cccnc1)*; dOrn = NCCC[C@@H](N)C(=O)O; 2Furoyl = O=C(c1ccco1)*; X2 = O=C(c1ccoc1)*; azaGly = NNC(=O)O
Target: T1, LHRH receptor (Rattus norvegicus, UniProt P30969)
T1 construct: endogenous in cells
T1 sequence (P30969 1-327): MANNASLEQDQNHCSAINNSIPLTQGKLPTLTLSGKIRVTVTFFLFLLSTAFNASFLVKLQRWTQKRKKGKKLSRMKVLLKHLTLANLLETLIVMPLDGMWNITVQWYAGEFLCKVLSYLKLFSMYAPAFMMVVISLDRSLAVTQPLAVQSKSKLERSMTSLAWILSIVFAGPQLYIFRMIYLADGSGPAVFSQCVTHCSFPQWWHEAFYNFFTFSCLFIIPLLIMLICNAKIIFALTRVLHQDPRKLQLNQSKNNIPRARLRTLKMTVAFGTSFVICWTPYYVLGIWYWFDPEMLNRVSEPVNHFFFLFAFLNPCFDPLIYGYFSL
Test: in vitro LHRH antagonist potency (pA2) against the agonist leuprolide
Type: cell-based
Conditions: negative logarithm of the antagonist concentration which shifts the response curve produced by the agonist leuprolide to two-fold higher concentration
Outline: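 Functional antagonism against the agonist leuprolide. pA2 is the negative log of antagonist concentration that shifts the leuprolide response curve to twofold higher concentration.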

Row | Structure (SMILES) | Kb [nM]
1 | CC(=O)N[C@H](Cc1ccc2ccccc2c1)C(=O)N[C@H](Cc1ccc(Cl)cc1)C(=O)N[C@H](Cc1cccnc1)C(=O)N[C@@H](CO)C(=O)N(C)[C@@H](Cc1ccc(O)cc1)C(=O)N[C@H](CCCCNC(=O)[C@@H](CO)NC(=O)CNC(=O)C1=C[C@@H](O)[C@@H](O)[C@H](O)C1)C(=O)N[C@@H](CC(C)C)C(=O)N[C@@H](CCCNC(=N)N)C(=O)N1CCC[C@H]1C(=O)N[C@H](C)C(N)=O [Example 48j, NAc-D2Nal^1 -D4ClPhe^2 -D3Pal^3 -Ser^4 -NMeTyr^5 -DLys(N-epsilon-D-Ser-Gly-Shikimyl)^6 -Leu^7 -Arg^8 -Pro^9 -DAla^10 NH2] (Ac-[d2Nal][dPhe(4-Cl)][d3Pal]S[NMeY][dK]([dS-Gly-Shikimoyl])LRP[dA]-NH2) | 0.017
2 | CC(=O)N[C@H](Cc1ccc2ccccc2c1)C(=O)N[C@H](Cc1ccc(Cl)cc1)C(=O)N[C@H](Cc1cccnc1)C(=O)N[C@@H](CO)C(=O)N(C)[C@@H](Cc1ccc(O)cc1)C(=O)N[C@H](CCCCNC(=O)[C@@H](CO)NC(=O)CNC(=O)c1cccnc1)C(=O)N[C@@H](CC(C)C)C(=O)N[C@@H](CCCNC(=N)N)C(=O)N1CCC[C@H]1C(=O)N[C@H](C)C(N)=O [Example 48k, NAc-D2Nal^1 -D4ClPhe^2 -D3Pal^3 -Ser^4 -NMeTyr^5 -DLys(N-epsilon-D-Ser-Gly-Nicotinyl)^6 -Leu^7 -Arg^8 -Pro^9 -DAla^10 NH2] (Ac-[d2Nal][dPhe(4-Cl)][d3Pal]S[NMeY][dK]([dS-Gly-Nicotinoyl])LRP[dA]-NH2) | 0.017
3 | CC(=O)N[C@H](Cc1ccc2ccccc2c1)C(=O)N[C@H](Cc1ccc(Cl)cc1)C(=O)N[C@H](Cc1cccnc1)C(=O)N[C@@H](CO)C(=O)N(C)[C@@H](Cc1ccc(O)cc1)C(=O)N[C@H](CCCNC(=O)CNC(=O)c1cccnc1)C(=O)N[C@@H](CC(C)C)C(=O)N[C@@H](CCCNC(=N)N)C(=O)N1CCC[C@H]1C(=O)N[C@H](C)C(N)=O [Example 49a, NAc-D2Nal^1 -D4ClPhe^2 -D3Pal^3 -Ser^4 -NMeTyr^5 -DOrn(N-epsilon-Gly-Nicotinyl)^6 -Leu^7 -Arg^8 -Pro^9 -DAla^10 NH2] (Ac-[d2Nal][dPhe(4-Cl)][d3Pal]S[NMeY][dOrn]([Gly-Nicotinoyl])LRP[dA]-NH2) | 0.0155
4 | CC(=O)N[C@H](Cc1ccc2ccccc2c1)C(=O)N[C@H](Cc1ccc(Cl)cc1)C(=O)N[C@H](Cc1cccnc1)C(=O)N[C@@H](CO)C(=O)N(C)[C@@H](Cc1ccc(O)cc1)C(=O)N[C@H](CCCNC(=O)[C@@H](CO)NC(=O)c1cccnc1)C(=O)N[C@@H](CC(C)C)C(=O)N[C@@H](CCCNC(=N)N)C(=O)N1CCC[C@H]1C(=O)N[C@H](C)C(N)=O [Example 49b, NAc-D2Nal^1 -D4ClPhe^2 -D3Pal^3 -Ser^4 -NMeTyr^5 -DOrn(N-epsilon-DSer-Nicotinyl)^6 -Leu^7 -Arg^8 -Pro^9 -DAla^10 NH2] (Ac-[d2Nal][dPhe(4-Cl)][d3Pal]S[NMeY][dOrn]([dS-Nicotinoyl])LRP[dA]-NH2) | 0.0155
5 | CC(=O)N[C@H](Cc1ccc2ccccc2c1)C(=O)N[C@H](Cc1ccc(Cl)cc1)C(=O)N[C@H](Cc1cccnc1)C(=O)N[C@@H](CO)C(=O)N(C)[C@@H](Cc1ccc(O)cc1)C(=O)N[C@H](CCCNC(=O)CNC(=O)C1=C[C@@H](O)[C@@H](O)[C@H](O)C1)C(=O)N[C@@H](CC(C)C)C(=O)N[C@@H](CCCNC(=N)N)C(=O)N1CCC[C@H]1C(=O)N[C@H](C)C(N)=O [Example 49c, NAc-D2Nal^1 -D4ClPhe^2 -D3Pal^3 -Ser^4 -NMeTyr^5 -DOrn(N-epsilon-Gly-Shikimyl)^6 -Leu^7 -Arg^8 -Pro^9 -DAla^10 NH2] (Ac-[d2Nal][dPhe(4-Cl)][d3Pal]S[NMeY][dOrn]([Gly-Shikimoyl])LRP[dA]-NH2) | 0.0427
6 | CC(=O)N[C@H](Cc1ccc2ccccc2c1)C(=O)N[C@H](Cc1ccc(Cl)cc1)C(=O)N[C@H](Cc1cccnc1)C(=O)N[C@@H](CO)C(=O)N(C)[C@@H](Cc1ccc(O)cc1)C(=O)N[C@H](CCCNC(=O)[C@@H](CO)NC(=O)C1=C[C@@H](O)[C@@H](O)[C@H](O)C1)C(=O)N[C@@H](CC(C)C)C(=O)N[C@@H](CCCNC(=N)N)C(=O)N1CCC[C@H]1C(=O)N[C@H](C)C(N)=O [Example 49d, NAc-D2Nal^1 -D4ClPhe^2 -D3Pal^3 -Ser^4 -NMeTyr^5 -DOrn(N-epsilon-DSer-Shikimyl)^6 -Leu^7 -Arg^8 -Pro^9 -DAla^10 NH2] (Ac-[d2Nal][dPhe(4-Cl)][d3Pal]S[NMeY][dOrn]([dS-Shikimoyl])LRP[dA]-NH2) | 0.00166
7 | CC(=O)N[C@H](Cc1ccc2ccccc2c1)C(=O)N[C@H](Cc1ccc(Cl)cc1)C(=O)N[C@H](Cc1cccnc1)C(=O)N[C@@H](CO)C(=O)N(C)[C@@H](Cc1ccc(O)cc1)C(=O)N[C@H](CCCCNC(=O)[C@@H](CO)NC(=O)c1cnc2ccccc2c1)C(=O)N[C@@H](CC(C)C)C(=O)N[C@@H](CCCNC(=N)N)C(=O)N1CCC[C@H]1C(=O)N[C@H](C)C(N)=O [Example 50d, NAc-D2Nal^1 -D4ClPhe^2 -D3Pal^3 -Ser^4 -NMeTyr^5 -DLys(N-epsilon-DSer-3-Quinolinyl)^6 -Leu^7 -Arg^8 -Pro^9 -DAla^10 NH2] (Ac-[d2Nal][dPhe(4-Cl)][d3Pal]S[NMeY][dK]([dS-Quinoline3carbonyl])LRP[dA]-NH2) | 0.0479
8 | CC(=O)N[C@H](Cc1ccc2ccccc2c1)C(=O)N[C@H](Cc1ccc(Cl)cc1)C(=O)N[C@H](Cc1cccnc1)C(=O)N[C@@H](CO)C(=O)N(C)[C@@H](Cc1ccc(O)cc1)C(=O)N[C@H](CCCCNC(=O)[C@@H](CO)NC(=O)c1ccnc2ccccc12)C(=O)N[C@@H](CC(C)C)C(=O)N[C@@H](CCCNC(=N)N)C(=O)N1CCC[C@H]1C(=O)N[C@H](C)C(N)=O [Example 50e, NAc-D2Nal^1 -D4ClPhe^2 -D3Pal^3 -Ser^4 -NMeTyr^5 -DLys(N-epsilon-DSer-4-Quinolinyl)^6 -Leu^7 -Arg^8 -Pro^9 -DAla^10 NH2] (Ac-[d2Nal][dPhe(4-Cl)][d3Pal]S[NMeY][dK]([dS-Quinoline4carbonyl])LRP[dA]-NH2) | 0.0288
9 | CC(=O)N[C@H](Cc1ccc2ccccc2c1)C(=O)N[C@H](Cc1ccc(Cl)cc1)C(=O)N[C@H](Cc1cccnc1)C(=O)N[C@@H](CO)C(=O)N(C)[C@@H](Cc1ccc(O)cc1)C(=O)N[C@H](CCCCNC(=O)[C@@H](CO)NC(=O)c1cnccn1)C(=O)N[C@@H](CC(C)C)C(=O)N[C@@H](CCCNC(=N)N)C(=O)N1CCC[C@H]1C(=O)N[C@H](C)C(N)=O [Example 50g, NAc-D2Nal^1 -D4ClPhe^2 -D3Pal^3 -Ser^4 -NMeTyr^5 -DLys(N-epsilon-DSer-2-Pyrazinecarbonyl)^6 -Leu^7 -Arg^8 -Pro^9 -DAla^10 NH2] (Ac-[d2Nal][dPhe(4-Cl)][d3Pal]S[NMeY][dK]([dS-Pyrazinecarbonyl])LRP[dA]-NH2) | 0.0126
10 | CC(=O)N[C@H](Cc1ccc2ccccc2c1)C(=O)N[C@H](Cc1ccc(Cl)cc1)C(=O)N[C@H](Cc1cccnc1)C(=O)N[C@@H](CO)C(=O)N(C)[C@@H](Cc1ccc(O)cc1)C(=O)N[C@H](CCCCNC(=O)CNC(=O)c1ccoc1)C(=O)N[C@@H](CC(C)C)C(=O)N[C@@H](CCCNC(=N)N)C(=O)N1CCC[C@H]1C(=O)N[C@H](C)C(N)=O [Example 51a, NAc-D2Nal^1 -D4ClPhe^2 -D3Pal^3 -Ser^4 -NMeTyr^5 -DLys(N-epsilon-Gly-3-Furoyl)^6 -Leu^7 -Arg^8 -Pro^9 -DAla^1 -NH2] (Ac-[d2Nal][dPhe(4-Cl)][d3Pal]S[NMeY][dK]([Gly-X2])LRP[dA]-NH2) | 0.011
11 | CC(=O)N[C@H](Cc1ccc2ccccc2c1)C(=O)N[C@H](Cc1ccc(Cl)cc1)C(=O)N[C@H](Cc1cccnc1)C(=O)N[C@@H](CO)C(=O)N(C)[C@@H](Cc1ccc(O)cc1)C(=O)N[C@H](CCCCNC(=O)CNC(=O)c1ccnc2ccccc12)C(=O)N[C@@H](CC(C)C)C(=O)N[C@@H](CCCNC(=N)N)C(=O)N1CCC[C@H]1C(=O)N[C@H](C)C(N)=O [Example 51d, NAc-D2Nal^1 -D4ClPhe^2 -D3Pal^3 -Ser^4 -NMeTyr^6 -DLys(N-epsilon-Gly-4-Quinolinyl)^6 -Leu^7 -Arg^8 -Pro^9 -DAla^10 NH2] (Ac-[d2Nal][dPhe(4-Cl)][d3Pal]S[NMeY][dK]([Gly-Quinoline4carbonyl])LRP[dA]-NH2) | 0.0141
12 | CC(=O)N[C@H](Cc1ccc2ccccc2c1)C(=O)N[C@H](Cc1ccc(Cl)cc1)C(=O)N[C@H](Cc1cccnc1)C(=O)N[C@@H](CO)C(=O)N(C)[C@@H](Cc1ccc(O)cc1)C(=O)N[C@H](CCCCNC(=O)CNC(=O)c1cnccn1)C(=O)N[C@@H](CC(C)C)C(=O)N[C@@H](CCCNC(=N)N)C(=O)N1CCC[C@H]1C(=O)N[C@H](C)C(N)=O [Example 51e, NAc-D2Nal^1 -D4ClPhe^2 -D3Pal^3 -Ser^4 -NMeTyr^6 -DLys(N-epsilon-Gly-2-Pyrazinecarbonyl)^6 -Leu^7 -Arg^8 -Pro^9 -DAla^10 NH2] (Ac-[d2Nal][dPhe(4-Cl)][d3Pal]S[NMeY][dK]([Gly-Pyrazinecarbonyl])LRP[dA]-NH2) | 0.00692
13 | CC(=O)N[C@H](Cc1ccc2ccccc2c1)C(=O)N[C@H](Cc1ccc(Cl)cc1)C(=O)N[C@H](Cc1cccnc1)C(=O)N[C@@H](CO)C(=O)N(C)[C@@H](Cc1ccc(O)cc1)C(=O)N[C@H](CCCNC(=O)NNC(=O)c1ccco1)C(=O)N[C@@H](CC(C)C)C(=O)N[C@@H](CCCCNC(C)C)C(=O)N1CCC[C@H]1C(=O)N[C@H](C)C(N)=O [Example 52, NAc-D2-Nal^1 -D4ClPhe^2 -D3Pal^3 -Ser^4 -NMeTyr^5 -DOrn(N-epsilon-Azagly-2-Furoyl)^6 -Leu^7 -Lys(N-epsilon-Isopropyl)^8 -Pro^9 -DAla^10 NH2] (Ac-[d2Nal][dPhe(4-Cl)][d3Pal]S[NMeY][dOrn]([azaGly-2Furoyl])L[Lys(iPr)]P[dA]-NH2) | 0.0155

From US5698522A, “6-position modified decapeptide LHRH antagonists” (Abbott Laboratories, priority 1995, dated 1997)
